Earlier results on one compound are cited in patent publication US6713027B2, “Ozonator for sterilizing, decontaminating, disinfecting, and/or sanitizing surgical instruments” (Electroclave, priority 2001, dated 2004).

The test system of this data set is pathogenic bacteria and viruses. Conditions: in water; compared with chlorine.

For the compound `O=[O+][O-]` [O3, ozone], the “rate of eliminating pathogenic bacteria and viruses from water relative to Cl (chlorine)” value is reported as 3,125 times.
